Tests used:
[1] = system: HSV-1 (Wal strain); assay: Experimental skin infection of mice with HSV-1, ointment treatment; assay type: in vivo, mice (Balb-C strain); details: HSV-1-infected Balb-C mice, 5% ointment twice daily from day 4 after infection; for survival: 14 days, placebo: 3 of 10 survived
Description: One part (by weight) D609, one part (by weight) potassium salt of decanoic acid, and four parts (by weight) cholesterol were mixed in a mortar. Subsequently, propyleneglycol (final concentration 10%) and vaseline were added such that the final concentration of D609 was 5%. The same procedure was used to produce ointments containing 5% aciclovir or 5% D609 and 5% aciclovir. A placebo ointment containing neither of the two agents was produced using the analogous procedure.
Ten mice (Balb-C strain) each were shaved on their upper leg and six scratches in the skin were made with a cannula in an area of 5×5 mm. Subsequently, a cotton bud was used to apply 50 μl of a HSV-1 suspension (Wal strain, 10^8 plaque-forming units/ml). The treatment (twice daily) was initiated four days after infection. The symptoms, “widespread lesions”, “hind leg paralysis”, and survival were recorded in the protocol.
The result is shown graphically in FIGS. 2a to 2d. […] Triangles indicate the surviving animals in each case, squares the animals with hind leg paralysis, and diamonds the animals with widespread lesions.

[2] = system: herpes simplex virus (Type-1, strain ANG); assay: Plaque formation of herpes simplex virus in Calu-6 cells; assay type: cell-based; details: for number of plaques: Calu-6 cells, 48 h
Description: Human lung carcinoma cells (Calu-6) were infected with 30 plaque-forming units of herpes simplex virus (Type-1, strain ANG) in Linbro plates. Cell culture medium (MEM containing 10% fetal calf serum, 0.85 g/l sodium bicarbonate, and 0.5% carboxymethylcellulose) containing either 0, 5 or 10 μg/ml exo/exo-tricyclo[5,2,1,0^2,6]-9yl-xanthogenate (D609) was added two hours after infection. The cultures were treated with aciclovir at the same time. All samples were processed as quadruplicates. The cells were incubated for 48 h at 37° C. under CO2 gassing (5%). Then the medium was decanted, the cells were fixed with 3% formalin and stained with 0.5% crystal violet. After drying at room temperature, the number of plaques formed was determined.

Structure (SMILES) | healing of lesions and paralysis [1] | survival [1] | number of plaques ([2]; aciclovir 0.16 μM alone, not statistically significant (p=0.4)) | increase of the effect of aciclovir in cell culture ([2]; in the presence of low, antivirally ineffective concentrations of the xanthogenate) | number of plaques ([2]; 5 μg/ml D609 alone, no-D609 control 32.75±11) | number of plaques ([2]; 10 μg/ml D609 alone, no-D609 control 32.75±11) | effect on plaque formation ([2]; D609 alone at 5 or 10 μg/ml)
Nc1nc2c(ncn2COCCO)c(=O)[nH]1 [aciclovir] | almost completely healed | survival rate higher | 30±11 | increased up to five-fold |  |  | 
S=C(S)OC1CC2CC1C1CCCC21 (stereo not drawn) [D609, exo/exo-tricyclo[5,2,1,0^2,6]-9yl-xanthogenate] | almost completely healed | survival rate higher |  |  | 32±3 | 33±6 | no effect

Source: patent publication US20060257432A1, “Pharmaceutical formulations of xanthogenates and inhibitors of viral nucelic acid replication” (priority 2003, published 2006)
